Like-named read-outs stand apart in the source and are kept apart here. Positions of bridges follow the written chain, without caps; N, C: chain ends. Non-standard residues stand in square brackets, D forms with d. Residues, ends and D or L forms follow the SMILES beside them. *: point of attachment. Palmitoyl = CCCCCCCCCCCCCCCC(=O)*; AEEA = NCCOCCOCC(=O)O

Here are results for six compounds from article PMC9655119, “Sustained Activation of CLR/RAMP Receptors by Gel-Forming Agonists” (International Journal of Molecular Sciences, 2022).

For assay [1], the target named is T1, human CLR/RAMP1 (Homo sapiens, UniProt O60894+Q16602).
T1 construct: host or cells: 1321N1 cells (cAMP Hunter cell line)
T1 sequence (Q16602 23-461): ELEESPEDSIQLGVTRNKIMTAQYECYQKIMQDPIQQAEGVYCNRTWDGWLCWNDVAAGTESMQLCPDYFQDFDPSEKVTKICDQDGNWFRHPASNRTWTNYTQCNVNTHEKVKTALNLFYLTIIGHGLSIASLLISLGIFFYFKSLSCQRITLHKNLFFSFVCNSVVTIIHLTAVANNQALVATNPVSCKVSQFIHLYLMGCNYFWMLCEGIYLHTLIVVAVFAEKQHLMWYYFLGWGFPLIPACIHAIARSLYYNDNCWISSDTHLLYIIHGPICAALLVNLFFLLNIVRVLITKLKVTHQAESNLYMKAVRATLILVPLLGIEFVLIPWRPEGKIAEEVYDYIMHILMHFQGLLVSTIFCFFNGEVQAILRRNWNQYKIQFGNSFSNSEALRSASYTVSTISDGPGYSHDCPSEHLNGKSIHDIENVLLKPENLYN
T1 sequence (O60894 27-148): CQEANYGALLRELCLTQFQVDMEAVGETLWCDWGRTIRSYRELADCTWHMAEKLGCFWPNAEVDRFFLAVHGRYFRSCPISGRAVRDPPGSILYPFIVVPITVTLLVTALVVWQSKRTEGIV
The assay can be described thus: CLR/RAMP1 receptor-activation assay (DiscoverX cAMP Hunter, HitHunter cAMP XS+). Format: cell-based. The settings on record: for Emax: read-out: CLR/RAMP1 Max Activity. On the procedure: (§1) The bioactivity of peptide analogs was studied using CLR/RAMP1, CLR/RAMP2, and CLR/RAMP3 assays by DiscoveRx (Fremont, CA, USA) in cells that stably express human CLR/RAMP1 (1321N1 cells), CLR/RAMP2 (CHO-K1 cells), or CLR/RAMP3 (CHO-K1 cells). The dose-dependent stimulatory effect of agonists was studied in duplicate, at 10 different concentrations. Determination of the half-maximal effective concentration (EC50) was performed using a 10-point dose-response curves. The starting concentration was 1.0 μM, and it was serially diluted 3-fold, in DMSO.
Cells were seeded in a total volume of 20 μL into 384-well microplates, and the activity was determined using the DiscoverX HitHunter cAMP XS + assay. Before the assay, media was aspirated from cells and replaced with 15 μL 2:1 HBSS/10 mM Hepes: cAMP XS + Ab reagent. Intermediate dilution of samples was performed to generate 4X sample in assay buffer, and 5 μL of the 4X sample was added to cells and incubated at 37°C. Vehicle concentration was 1%.
The chemiluminescent signal was read with a PerkinElmer instrument.

In assay [2] the target is T2, human CLR/RAMP2 (Homo sapiens, UniProt O60895+Q16602).
T2 construct: host or cells: CHO-K1 cells (PathHunter β-Arrestin cell line)
T2 sequence (Q16602 23-461): as the sequence (Q16602 23-461) above
T2 sequence (O60895 43-175): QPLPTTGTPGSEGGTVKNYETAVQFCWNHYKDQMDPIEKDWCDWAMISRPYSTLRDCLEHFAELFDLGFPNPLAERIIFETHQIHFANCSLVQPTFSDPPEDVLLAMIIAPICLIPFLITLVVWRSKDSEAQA
Description: CLR/RAMP2 receptor-activation assay (PathHunter β-Arrestin). To be noted: for Emax: read-out: CLR/RAMP2 Max Activity. Format: cell-based. Here is the method: as §1
In this assay, the CLR was fused in frame with a small enzyme donor fragment ProLink™ (PK). The receptor was co-expressed with a fusion protein of β-arrestin and an N-terminal deletion mutant of β-galactosidase (i.e., enzyme acceptor). Activation of the CLR/RAMP2 receptor stimulated the binding of β-arrestin to the PK-tagged receptor and led to an increase in enzyme activities which can then be measured with the PathHunter detection reagents. PathHunter cell lines were seeded in a total volume of 20 μL into 384-well microplates and incubated at 37 °C prior to the assay. Intermediate dilution of samples was performed to generate 5X samples in the assay buffer. A 5 μL aliquot of 5X sample was added to cells and incubated at 37 °C for 90 min. Vehicle concentration was 1%.

Where [3] appears, read: percentage of positive control β-CGRP.

As for `CCCCCCCCCCCCCCCC(=O)NCCCC[C@H](NC(=O)COCCOCCN)C(=O)NCC(=O)N[C@H]1CSSC[C@@H](C(=O)N[C@H](C(=O)N[C@H](C(=O)N[C@@H](CCC(N)=O)C(=O)N[C@@H](CCCCN)C(=O)N[C@@H](CC(C)C)C(=O)N[C@@H](C)C(=O)N[C@@H](Cc2c[nH]cn2)C(=O)N[C@@H](CCC(N)=O)C(=O)N[C@H](C(=O)N[C@@H](Cc2ccc(O)cc2)C(=O)N[C@@H](CCC(N)=O)C(=O)N[C@@H](Cc2ccccc2)C(=O)N[C@H](C(=O)N[C@@H](CC(=O)O)C(=O)N[C@@H](CCCCN)C(=O)N[C@@H](CC(=O)O)C(=O)N[C@@H](CCCCN)C(=O)N[C@@H](CC(=O)O)C(=O)N[C@@H](CC(N)=O)C(=O)N[C@@H](CO)C(=O)N[C@@H](C)C(=O)N2CCC[C@H]2C(=O)N[C@H](C(=O)N[C@@H](CC(=O)O)C(=O)N2CCC[C@H]2C(=O)N[C@@H](CO)C(=O)N[C@@H](CO)C(=O)N2CCC[C@H]2C(=O)N[C@@H](Cc2c[nH]cn2)C(=O)N[C@@H](CO)C(=O)N[C@@H](Cc2ccc(O)cc2)C(N)=O)C(C)C)[C@@H](C)O)[C@@H](C)CC)C(C)C)[C@@H](C)O)NC(=O)[C@H]([C@@H](C)O)NC(=O)CNC(=O)[C@H](Cc2ccccc2)NC(=O)[C@H](CCCNC(=N)N)NC1=O` [Analog B-1], the Emax was determined as 54% in assay [1] and 143% in assay [2].

Take `CCCCCCCCCCCCCCCC(=O)NCCCC[C@H](NC(=O)[C@@H](N)[C@@H](C)O)C(=O)N[C@@H](CCCCN)C(=O)N[C@H](C(=O)N[C@@H](CC(C)C)C(=O)N[C@@H](CCCNC(=N)N)C(=O)N[C@H](C(=O)NCC(=O)N[C@H]1CSSC[C@@H](C(=O)N[C@H](C(=O)N[C@H](C(=O)N[C@@H](CCC(N)=O)C(=O)N[C@@H](CCCCN)C(=O)N[C@@H](CC(C)C)C(=O)N[C@@H](C)C(=O)N[C@@H](Cc2c[nH]cn2)C(=O)N[C@@H](CCC(N)=O)C(=O)N[C@H](C(=O)N[C@@H](Cc2ccc(O)cc2)C(=O)N[C@@H](CCC(N)=O)C(=O)N[C@@H](Cc2ccccc2)C(=O)N[C@H](C(=O)N[C@@H](CC(=O)O)C(=O)N[C@@H](CCCCN)C(=O)N[C@@H](CC(=O)O)C(=O)N[C@@H](CCCCN)C(=O)N[C@@H](CC(=O)O)C(=O)N[C@@H](CC(N)=O)C(=O)N[C@@H](CO)C(=O)N[C@@H](C)C(=O)N2CCC[C@H]2C(=O)N[C@H](C(=O)N[C@@H](CC(=O)O)C(=O)N2CCC[C@H]2C(=O)N[C@@H](CO)C(=O)N[C@@H](CO)C(=O)N2CCC[C@H]2C(=O)N[C@@H](Cc2c[nH]cn2)C(=O)N[C@@H](CO)C(=O)N[C@@H](Cc2ccc(O)cc2)C(N)=O)C(C)C)[C@@H](C)O)[C@@H](C)CC)C(C)C)[C@@H](C)O)NC(=O)[C@H]([C@@H](C)O)NC(=O)CNC(=O)[C@H](Cc2ccccc2)NC(=O)[C@H](CCCNC(=N)N)NC1=O)[C@@H](C)O)[C@@H](C)O` [Analog C-4]: the EC50 was determined as 200 pM in assay [1] (1321N1 cells stably expressing human CLR/RAMP1, cAMP read-out, 10-point dose-response in duplicate, start 1.0 μM, 3-fold serial dilution in DMSO) and 500 pM in assay [2] (CHO-K1 cells stably expressing human CLR/RAMP2, β-arrestin recruitment, 90 min at 37 °C, 10-point dose-response in duplicate, start 1.0 μM, 3-fold dilution in DMSO). The Emax is 82% in assay [1] (setting [3]) and 86% in assay [2] (percentage of positive control ADM1-52).

For the compound `CCCCCCCCCCCCCCCC(=O)NCCCC[C@H](NC(=O)COCCOCCN)C(=O)NCC(=O)N[C@H]1CSSC[C@@H](C(=O)N[C@H](C(=O)N[C@H](C(=O)N[C@@H](CCC(N)=O)C(=O)N[C@@H](CCCCN)C(=O)N[C@@H](CC(C)C)C(=O)N[C@@H](C)C(=O)N[C@@H](Cc2c[nH]cn2)C(=O)N[C@@H](CCC(N)=O)C(=O)N[C@H](C(=O)N[C@@H](Cc2ccc(O)cc2)C(=O)N[C@@H](CCC(N)=O)C(=O)N[C@@H](Cc2ccccc2)C(=O)N[C@H](C(=O)N[C@@H](CC(=O)O)C(=O)N[C@@H](CCCCN)C(=O)N[C@@H](CC(=O)O)C(=O)N[C@@H](CCCCN)C(=O)N[C@@H](CC(=O)O)C(=O)N[C@@H](CC(N)=O)C(=O)N[C@H](C(=O)N[C@@H](C)C(=O)N2CCC[C@H]2C(=O)N[C@@H](CCCNC(=N)N)C(=O)N[C@@H](CO)C(=O)N[C@@H](CCCCN)C(=O)N[C@H](C(=O)N[C@@H](CO)C(=O)N2CCC[C@H]2C(=O)N[C@@H](CCC(N)=O)C(=O)NCC(=O)N[C@@H](Cc2ccc(O)cc2)C(N)=O)[C@@H](C)CC)C(C)C)[C@@H](C)O)[C@@H](C)CC)C(C)C)[C@@H](C)O)NC(=O)[C@H]([C@@H](C)O)NC(=O)CNC(=O)[C@H](Cc2ccccc2)NC(=O)[C@H](CCCNC(=N)N)NC1=O` [Analog C-7], the figures for the Emax in assay [1] and in assay [2] were 70% and 147%, respectively.

For `CCCCCCCCCCCCCCCC(=O)NCCCC[C@H](NC(=O)COCCOCCN)C(=O)N[C@H](C(=O)N[C@@H](CCCCN)C(=O)N[C@@H](CCCCN)C(=O)N[C@H](C(=O)N[C@@H](CC(C)C)C(=O)N[C@@H](CCCNC(=N)N)C(=O)N[C@H](C(=O)NCC(=O)N[C@H]1CSSC[C@@H](C(=O)N[C@H](C(=O)N[C@H](C(=O)N[C@@H](CCC(N)=O)C(=O)N[C@@H](CCCCN)C(=O)N[C@@H](CC(C)C)C(=O)N[C@@H](C)C(=O)N[C@@H](Cc2c[nH]cn2)C(=O)N[C@@H](CCC(N)=O)C(=O)N[C@H](C(=O)N[C@@H](Cc2ccc(O)cc2)C(=O)N[C@@H](CCC(N)=O)C(=O)N[C@@H](Cc2ccccc2)C(=O)N[C@H](C(=O)N[C@@H](CC(=O)O)C(=O)N[C@@H](CCCCN)C(=O)N[C@@H](CC(=O)O)C(=O)N[C@@H](CCCCN)C(=O)N[C@@H](CC(=O)O)C(=O)N[C@@H](CC(N)=O)C(=O)N[C@H](C(=O)N[C@@H](C)C(=O)N2CCC[C@H]2C(=O)N[C@@H](CCCNC(=N)N)C(=O)N[C@@H](CO)C(=O)N[C@@H](CCCCN)C(=O)N[C@H](C(=O)N[C@@H](CO)C(=O)N2CCC[C@H]2C(=O)N[C@@H](CCC(N)=O)C(=O)NCC(=O)N[C@@H](Cc2ccc(O)cc2)C(N)=O)[C@@H](C)CC)C(C)C)[C@@H](C)O)[C@@H](C)CC)C(C)C)[C@@H](C)O)NC(=O)[C@H]([C@@H](C)O)NC(=O)CNC(=O)[C@H](Cc2ccccc2)NC(=O)[C@H](CCCNC(=N)N)NC1=O)[C@@H](C)O)[C@@H](C)O)[C@@H](C)O` [Analog C-8], the Emax in assay [1] amounted to 69%; in assay [2] it was 68%.

`CCCCCCCCCCCCCCCC(=O)NCCCC[C@H](NC(=O)COCCOCCN)C(=O)NCC(=O)N[C@H]1CSSC[C@@H](C(=O)N[C@H](C(=O)N[C@H](C(=O)N[C@@H](CCC(N)=O)C(=O)N[C@@H](CCCCN)C(=O)N[C@@H](CC(C)C)C(=O)N[C@@H](C)C(=O)N[C@@H](Cc2c[nH]cn2)C(=O)N[C@@H](CCC(N)=O)C(=O)N[C@H](C(=O)N[C@@H](Cc2ccc(O)cc2)C(=O)N[C@@H](CCC(N)=O)C(=O)N[C@@H](Cc2ccccc2)C(=O)N[C@H](C(=O)N[C@@H](CC(=O)O)C(=O)N[C@@H](CCCCN)C(=O)N[C@@H](CC(=O)O)C(=O)N[C@@H](CO)C(=O)N[C@@H](C)C(=O)N2CCC[C@H]2C(=O)N[C@H](C(=O)N[C@@H](CC(=O)O)C(=O)N2CCC[C@H]2C(=O)N[C@@H](CO)C(=O)N[C@@H](CO)C(=O)N2CCC[C@H]2C(=O)N[C@@H](Cc2c[nH]cn2)C(=O)N[C@@H](CO)C(=O)N[C@@H](Cc2ccc(O)cc2)C(N)=O)C(C)C)[C@@H](C)O)[C@@H](C)CC)C(C)C)[C@@H](C)O)NC(=O)[C@H]([C@@H](C)O)NC(=O)CNC(=O)[C@H](Cc2ccccc2)NC(=O)[C@H](CCCNC(=N)N)NC1=O` [Analog D-1] (H-[AEEA]K(Palmitoyl)GCRFGTCTVQKLAHQIYQFTDKDSAPVDPSSPHSY-NH2; disulfide 4-9): the Emax is 78% in assay [1] and 77% in assay [2].

With `CSCC[C@H](NC(=O)CNC(=O)CNC(=O)[C@H](CO)NC(=O)[C@H](CCCNC(=N)N)NC(=O)[C@H](CO)NC(=O)[C@H](CC(C)C)NC(=O)[C@H](CC(C)C)NC(=O)CNC(=O)[C@H](C)NC(=O)[C@H](CC(C)C)NC(=O)[C@H](CCCNC(=N)N)NC(=O)[C@H](Cc1c[nH]cn1)NC(=O)[C@@H](NC(=O)[C@@H](NC(=O)[C@@H]1CSSC[C@H](NC(=O)[C@H](C)N)C(=O)N[C@@H](CC(N)=O)C(=O)N[C@@H]([C@@H](C)O)C(=O)N[C@@H](C)C(=O)N[C@@H]([C@@H](C)O)C(=O)N1)C(C)C)[C@@H](C)O)C(=O)N[C@H](C(=O)N[C@@H](CCCCN)C(=O)N[C@@H](CO)C(=O)N[C@@H](CC(N)=O)C(=O)N[C@@H](Cc1ccccc1)C(=O)N[C@H](C(=O)N1CCC[C@H]1C(=O)N[C@H](C(=O)N[C@@H](CC(N)=O)C(=O)N[C@H](C(=O)NCC(=O)N[C@@H](CO)C(=O)N[C@@H](CCCCN)C(=O)N[C@@H](C)C(=O)N[C@@H](Cc1ccccc1)C(N)=O)C(C)C)[C@@H](C)O)C(C)C)C(C)C` [CGRP, calcitonin gene-related peptide, reference compound], the Emax in assay [1] (setting [3]) came out at 103%.
